From patent US20260217701A1, “SELECTIVE BET INHIBITORS AND USES THEREOF” (Tay Therapeutics Limited, priority 2022, published 2026)

Test system: imiquimod-induced psoriasis
Experiment: Imiquimod-induced psoriasis model
Format: in vivo, mice
Conditions: for Mean scores of the presence of erythema on the skin of animals at the area of induction of psoriasis / Mean scores of the presence of induration on the skin of animals at the area of induction of psoriasis / Mean scores of the presence of peeling on the skin of animals at the area of induction of psoriasis: mean ± SEM; for Mean PASI Scores in IMI-Psoriasis Model: mice
Summary of the method: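 Psoriasis-like dermatitis induced in mice by daily dorsal imiquimod cream (Days 1–14); dosing with Compound A (5% DMSO/40% PEG-400/55% saline vehicle) began Day 8. Read-outs: summed 0–4 scores for erythema, induration and peeling daily to Day 15, plus terminal spleen ratio, behaviour and serum cytokines.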

[1] = IMI + 10 mg/kg, D8 (before start of treatment)

## Cn1cc(-c2ccccc2)c(-c2cn(C)c(=O)c3[nH]c(-c4cnn(C(F)(F)F)c4)cc23)cc1=O [Compound A, 6-methyl-4-(1-methyl-2-oxo-5-phenyl-1,2-dihydropyridin-4-yl)-2-(1-(trifluoromethyl)-1H-pyrazol-4-yl)-1,6-dihydro-7H-pyrrolo[2,3-c]pyridin-7-one]
IMI + 3 mg/kg, D15
  Mean scores of the presence of erythema on the skin of animals at the area of induction of psoriasis: 0.0 ± 0.0
  Mean scores of the presence of induration on the skin of animals at the area of induction of psoriasis: 0.1 ± 0.1
  Mean scores of the presence of peeling on the skin of animals at the area of induction of psoriasis: 0.3 ± 0.2
  Mean PASI Scores in IMI-Psoriasis Model: 0.4 ± 0.2
[1]
  Mean scores of the presence of erythema on the skin of animals at the area of induction of psoriasis: 2.3 ± 0.2
  Mean scores of the presence of induration on the skin of animals at the area of induction of psoriasis: 2.6 ± 0.2
  Mean scores of the presence of peeling on the skin of animals at the area of induction of psoriasis: 2.3 ± 0.3
  Mean PASI Scores in IMI-Psoriasis Model: 7.1 ± 0.4
IMI + 10 mg/kg, D9
  Mean scores of the presence of erythema on the skin of animals at the area of induction of psoriasis: 1.2 ± 0.2
  Mean scores of the presence of induration on the skin of animals at the area of induction of psoriasis: 2.0 ± 0.3
  Mean scores of the presence of peeling on the skin of animals at the area of induction of psoriasis: 2.0 ± 0.3
  Mean PASI Scores in IMI-Psoriasis Model: 5.3 ± 0.6
IMI + 10 mg/kg, D10
  Mean scores of the presence of erythema on the skin of animals at the area of induction of psoriasis: 1.0 ± 0.2
  Mean scores of the presence of induration on the skin of animals at the area of induction of psoriasis: 1.8 ± 0.2
  Mean scores of the presence of peeling on the skin of animals at the area of induction of psoriasis: 1.5 ± 0.2
  Mean PASI Scores in IMI-Psoriasis Model: 4.3 ± 0.5
IMI + 10 mg/kg, D11
  Mean scores of the presence of erythema on the skin of animals at the area of induction of psoriasis: 1.3 ± 0.2
  Mean scores of the presence of induration on the skin of animals at the area of induction of psoriasis: 1.6 ± 0.2
  Mean scores of the presence of peeling on the skin of animals at the area of induction of psoriasis: 1.5 ± 0.2
  Mean PASI Scores in IMI-Psoriasis Model: 4.4 ± 0.4
IMI + 10 mg/kg, D12
  Mean scores of the presence of erythema on the skin of animals at the area of induction of psoriasis: 0.5 ± 0.2
  Mean scores of the presence of induration on the skin of animals at the area of induction of psoriasis: 1.1 ± 0.2
  Mean scores of the presence of peeling on the skin of animals at the area of induction of psoriasis: 1.3 ± 0.2
  Mean PASI Scores in IMI-Psoriasis Model: 2.9 ± 0.5
IMI + 10 mg/kg, D13
  Mean scores of the presence of erythema on the skin of animals at the area of induction of psoriasis: 0.1 ± 0.1
  Mean scores of the presence of induration on the skin of animals at the area of induction of psoriasis: 0.8 ± 0.2
  Mean scores of the presence of peeling on the skin of animals at the area of induction of psoriasis: 0.6 ± 0.2
  Mean PASI Scores in IMI-Psoriasis Model: 1.5 ± 0.2
IMI + 10 mg/kg, D14
  Mean scores of the presence of erythema on the skin of animals at the area of induction of psoriasis: 0.0 ± 0.0
  Mean scores of the presence of induration on the skin of animals at the area of induction of psoriasis: 0.4 ± 0.2
  Mean scores of the presence of peeling on the skin of animals at the area of induction of psoriasis: 0.3 ± 0.2
  Mean PASI Scores in IMI-Psoriasis Model: 0.6 ± 0.2
IMI + 10 mg/kg, D15
  Mean scores of the presence of erythema on the skin of animals at the area of induction of psoriasis: 0.0 ± 0.0
  Mean scores of the presence of induration on the skin of animals at the area of induction of psoriasis: 0.1 ± 0.1
  Mean scores of the presence of peeling on the skin of animals at the area of induction of psoriasis: 0.3 ± 0.2
  Mean PASI Scores in IMI-Psoriasis Model: 0.4 ± 0.2
IMI + 1 mg/kg, D8 (before start of treatment)
  Mean PASI Scores in IMI-Psoriasis Model: 7.3 ± 0.3
IMI + 1 mg/kg, D9
  Mean PASI Scores in IMI-Psoriasis Model: 7.0 ± 0.4
IMI + 1 mg/kg, D10
  Mean PASI Scores in IMI-Psoriasis Model: 6.0 ± 0.4
IMI + 1 mg/kg, D11
  Mean PASI Scores in IMI-Psoriasis Model: 5.8 ± 0.5
IMI + 1 mg/kg, D12
  Mean PASI Scores in IMI-Psoriasis Model: 4.4 ± 0.3
IMI + 1 mg/kg, D13
  Mean PASI Scores in IMI-Psoriasis Model: 3.1 ± 0.4
IMI + 1 mg/kg, D14
  Mean PASI Scores in IMI-Psoriasis Model: 2.1 ± 0.3
IMI + 1 mg/kg, D15
  Mean PASI Scores in IMI-Psoriasis Model: 1.1 ± 0.2
IMI + 3 mg/kg, D8 (before start of treatment)
  Mean PASI Scores in IMI-Psoriasis Model: 6.9 ± 0.4
IMI + 3 mg/kg, D9
  Mean PASI Scores in IMI-Psoriasis Model: 6.8 ± 0.4
IMI + 3 mg/kg, D10
  Mean PASI Scores in IMI-Psoriasis Model: 5.5 ± 0.3
IMI + 3 mg/kg, D11
  Mean PASI Scores in IMI-Psoriasis Model: 4.0 ± 0.3
IMI + 3 mg/kg, D12
  Mean PASI Scores in IMI-Psoriasis Model: 3.5 ± 0.4
IMI + 3 mg/kg, D13
  Mean PASI Scores in IMI-Psoriasis Model: 1.8 ± 0.3
IMI + 3 mg/kg, D14
  Mean PASI Scores in IMI-Psoriasis Model: 0.8 ± 0.3
mouse, in vivo
  body weight change over the last 7 days: weight gains
  erythema, induration and peeling of the skin at the area of induction: significantly reduced
Relative to vehicle-treated psoriasis animals
  use of enrichment (nesting): restored the use of enrichment
serum, day 15
  IL-17 level, lower than vehicle (placebo) treated animals: > 93%
